pC1 and Selectivity data for 30 compounds are collected here from ChEMBL document CHEMBL1147462, “Exploring QSAR of melatonin receptor ligand benzofuran derivatives using E-state index” (Bioorg Med Chem Lett, 2004).

For experiment [1], the target named is Melatonin receptor type 1A (Homo sapiens) (UniProt P48039). Put plainly: Binding affinity against Melatonin receptor type 1A.
The target of experiment [2] is T1, Melatonin receptor type 1B (Homo sapiens) (UniProt P49286).
T1 sequence (whole entry): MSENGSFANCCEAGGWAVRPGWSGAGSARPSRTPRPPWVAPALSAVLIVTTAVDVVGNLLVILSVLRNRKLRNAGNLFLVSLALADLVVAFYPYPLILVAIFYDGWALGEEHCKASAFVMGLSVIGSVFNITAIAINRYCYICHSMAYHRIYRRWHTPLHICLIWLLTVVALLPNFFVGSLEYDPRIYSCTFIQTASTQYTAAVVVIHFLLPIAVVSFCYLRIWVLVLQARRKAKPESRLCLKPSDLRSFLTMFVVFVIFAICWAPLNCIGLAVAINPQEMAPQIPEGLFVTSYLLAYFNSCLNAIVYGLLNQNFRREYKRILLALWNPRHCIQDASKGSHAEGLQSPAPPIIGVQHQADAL
As to the kind of experiment: Binding affinity against melatonin receptor type 1B.

For experiment [3], the target named is T2, Melatonin receptor (Homo sapiens) (UniProt P48039+P49286). As to the kind of experiment: Selectivity (pC2-PC1) was determined. It is filed as protein assay.
T2 sequence (P48039 whole entry, looked up, one chain of several): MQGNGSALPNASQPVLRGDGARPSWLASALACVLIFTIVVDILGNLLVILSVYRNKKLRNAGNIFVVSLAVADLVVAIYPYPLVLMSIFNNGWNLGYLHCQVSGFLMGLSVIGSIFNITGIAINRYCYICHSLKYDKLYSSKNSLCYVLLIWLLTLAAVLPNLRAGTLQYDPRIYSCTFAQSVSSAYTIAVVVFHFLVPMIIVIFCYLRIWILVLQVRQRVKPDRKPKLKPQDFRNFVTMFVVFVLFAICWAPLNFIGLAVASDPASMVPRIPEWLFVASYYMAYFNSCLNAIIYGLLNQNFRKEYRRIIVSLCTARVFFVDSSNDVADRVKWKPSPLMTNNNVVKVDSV
For experiment [4], the target named is T2, Melatonin receptor (Homo sapiens). Put plainly: Binding affinity against melatonin (MT1) receptor (pC1). It is filed as protein assay.

Sequence of Melatonin receptor type 1A (Homo sapiens) (P48039 whole entry): as the sequence (P48039 whole entry, looked up, one chain of several) above

Take `C/C=C/C(=O)NCCc1c(-c2ccccc2)oc2ccc(OC)cc12`: the pC1 in experiment [1] is 3; in experiment [2] it was 3.68. This compound also displayed a Selectivity in experiment [3] of 0.682.
The corresponding values for `COc1ccc2oc(Cc3c(Cl)cccc3Cl)c(CCNC(C)=O)c2c1` are 1.07, 1.89 and 0.82.
The matching figures for `CCCC(=O)NCCc1c(Cc2ccccc2)oc2ccc(OC)cc12`: 2.48, 3.7 and 1.22.
The matching figures for `COc1ccc2oc(Cc3cccc(F)c3)c(CCNC(C)=O)c2c1`: 3.12, 3.64 and 0.513.
As for `CC(=O)NCCc1c(Cc2ccccc2)oc2ccc(O)cc12`, the figures for the pC1 in experiment [1] and in experiment [2] were 0.245 and 1.1, respectively. Also, in experiment [3], the Selectivity was 0.852.
For the compound `COc1ccc2oc(Cc3cc(C(F)(F)F)cc(C(F)(F)F)c3)c(CCNC(C)=O)c2c1`, the pC1 turned out to be 0.322 in experiment [1] and 0.469 in experiment [2]. In experiment [3], this compound yielded a Selectivity of 0.147.
The matching figures for `COc1ccc2oc(Cc3ccccc3)c(CCNC(=O)c3ccco3)c2c1`: 0.156, 1.44 and 1.28.
In the case of `CNC(=O)NCCc1c(-c2ccccc2)oc2ccc(OC)cc12`, the pC1 in experiment [4] and in experiment [2] was 4.4 in each case. Further, in experiment [3], the Selectivity worked out at 0.
In the case of `C=CC(=O)NCCc1c(Cc2cccc(OC)c2)oc2ccc(OC)cc12`, the pC1 in experiment [1] stood at 1.26; in experiment [2] it was 2.56. Further, the Selectivity in experiment [3] was 1.3.
Turning to `CCCCCCOc1ccc2oc(Cc3ccccc3)c(CCNC(C)=O)c2c1`, the pC1 in experiment [1] is 2.09; in experiment [2] it was 2.49. For the same compound, the Selectivity in experiment [3] came to 0.407.
The matching figures for `COc1ccc2oc(Cc3cccc(Cl)c3)c(CCNC(C)=O)c2c1`: 2.14, 3.66 and 1.51.
The matching figures for `CCCCCOc1ccc2oc(Cc3ccccc3)c(CCNC(C)=O)c2c1`: 1.37, 2.01 and 0.642.
The matching figures for `COc1ccc2oc(Cc3ccccc3)c(CCNC(=O)CI)c2c1`: 2.06, 3.39 and 1.32.
Take `COc1ccc2oc(CCCc3ccccc3)c(CCNC(C)=O)c2c1`: the figures for the pC1 in experiment [1] and in experiment [2] were 1.5 and 2.82, respectively. Besides, the Selectivity in experiment [3] worked out at 1.32.
For the compound `C=CC(=O)NCCc1c(-c2ccccc2)oc2ccc(OC)cc12`, the pC1 was found to be 4.7 in experiment [1] and 5 in experiment [2]. For the same compound, in experiment [3], the Selectivity came to 0.301.
On to `COc1ccc2oc(Cc3cccc(C(F)(F)F)c3)c(CCNC(C)=O)c2c1`, for which the values for the pC1 in experiment [1] and in experiment [2] were 1.1 and 2.93, respectively. Also, the Selectivity in experiment [3] turned out to be 1.83.
The corresponding values for `COc1ccc2oc(-c3ccccc3)c(CCNC(C)=O)c2c1` are 5, 4.7 and -0.301.
Regarding `COc1cccc(Cc2oc3ccc(OC)cc3c2CCNC(C)=O)c1`, in experiment [2], the pC1 is 3.5. In experiment [3], this compound had a Selectivity of 2.1.
For `COc1ccc2oc(-c3ccccc3)c(CCNC(=O)Cc3ccco3)c2c1`, the pC1 in experiment [1] turned out to be 1.89; in experiment [2] it was 0.442. Besides, in experiment [3], the Selectivity is -1.45.
The corresponding values for `C=CC(=O)NCCc1c(Cc2ccccc2)oc2ccc(OC)cc12` are 1.27, 3.16 and 1.89.
The corresponding values for `COc1ccc(Cc2oc3ccc(OC)cc3c2CCNC(C)=O)cc1` are 1.62, 3.3 and 1.68.
Turning to `C=CCC(=O)NCCc1c(-c2ccccc2)oc2ccc(OC)cc12`, the pC1 in experiment [1] is 5; in experiment [2], 4.7. For the same compound, the Selectivity in experiment [3] is -0.301.
On to `C=CCC(=O)NCCc1c(Cc2ccccc2)oc2ccc(OC)cc12`, for which the pC1 came out at 2.46 in experiment [1] and 4.22 in experiment [2]. This compound came in with a Selectivity in experiment [3] of 1.77.
The corresponding values for `CC(=O)NCCc1c(Cc2ccccc2)oc2ccccc12` are 0.81, 1.98 and 1.17.
As to `CCc1ccc2oc(Cc3ccccc3)c(CCNC(C)=O)c2c1`, the pC1 is 1.19 in experiment [1] and 2.08 in experiment [2]. This compound had a Selectivity in experiment [3] of 0.893.
The corresponding values for `COc1cccc(Cc2oc3ccccc3c2CCNC(C)=O)c1` are 0.64, 1.73 and 1.09.
The corresponding values for `CNC(=O)NCCc1c(Cc2ccccc2)oc2ccc(OC)cc12` are 2.27, 3.46 and 1.19.
The corresponding values for `COc1ccc2oc(Cc3ccccc3OC)c(CCNC(C)=O)c2c1` are 1.84, 3.47 and 2.1.
Turning to `CCc1ccc2oc(Cc3cccc(OC)c3)c(CCNC(C)=O)c2c1`, the pC1 turned out to be 0.541 in experiment [1] and 1.77 in experiment [2]. In experiment [3], this compound displayed a Selectivity of 1.23.
The corresponding values for `COc1ccc2oc(CC3CCCCC3)c(CCNC(C)=O)c2c1` are 1.18, 2.6 and 1.43.
